Assay results taken from US20250320193A1, “OXOISOINDOLINYL SUBSTITUTED PIPERIDINEDIONE DERIVATIVE AND USE THEREOF” (GLUETACS THERAPEUTICS (SHANGHAI) CO., LTD., priority 2022, published 2025).
pIC50: −log10 of the molar value.

What was measured:
[1] = target: human Cereblon WT GST-tagged protein (Homo sapiens (Human), UniProt Q96SW2); experiment: CRBN-binding affinity, HTRF (CEREBLON BINDING kit, CISBIO); conditions: HTRF inhibitory activity
Summary of the method: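 HTRF competition format: test compound displaces Thalidomide-Red from GST-tagged human Cereblon WT, detected with a Eu-labelled anti-GST antibody. Percent CRBN binding inhibition was derived from the 620 nm signal, normalized to solvent-control and protein-free blank wells.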

[2] = target: GSPT1 (Homo sapiens (Human), UniProt P15170+Q96SW2); experiment: Western blot, substrate protein expression in hPBMC: GSPT1; format: cell-based; conditions: hPBMC, compound 500 nM, 24 hours, Western blot
Chain of GSPT1 (P15170 whole entry): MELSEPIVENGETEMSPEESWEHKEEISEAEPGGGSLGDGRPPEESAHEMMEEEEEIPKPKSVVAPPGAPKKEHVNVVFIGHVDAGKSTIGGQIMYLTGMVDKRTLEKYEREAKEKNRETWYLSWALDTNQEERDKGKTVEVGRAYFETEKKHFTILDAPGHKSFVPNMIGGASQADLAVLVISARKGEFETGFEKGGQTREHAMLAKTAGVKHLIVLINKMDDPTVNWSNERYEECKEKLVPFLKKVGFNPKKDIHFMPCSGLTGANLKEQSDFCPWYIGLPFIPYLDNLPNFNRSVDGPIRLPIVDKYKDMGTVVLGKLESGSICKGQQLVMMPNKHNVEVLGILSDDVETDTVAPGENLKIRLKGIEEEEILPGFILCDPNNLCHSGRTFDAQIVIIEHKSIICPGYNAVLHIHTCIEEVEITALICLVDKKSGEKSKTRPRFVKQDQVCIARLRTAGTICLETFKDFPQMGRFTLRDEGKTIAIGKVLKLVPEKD
Chain of GSPT1 (Q96SW2 whole entry): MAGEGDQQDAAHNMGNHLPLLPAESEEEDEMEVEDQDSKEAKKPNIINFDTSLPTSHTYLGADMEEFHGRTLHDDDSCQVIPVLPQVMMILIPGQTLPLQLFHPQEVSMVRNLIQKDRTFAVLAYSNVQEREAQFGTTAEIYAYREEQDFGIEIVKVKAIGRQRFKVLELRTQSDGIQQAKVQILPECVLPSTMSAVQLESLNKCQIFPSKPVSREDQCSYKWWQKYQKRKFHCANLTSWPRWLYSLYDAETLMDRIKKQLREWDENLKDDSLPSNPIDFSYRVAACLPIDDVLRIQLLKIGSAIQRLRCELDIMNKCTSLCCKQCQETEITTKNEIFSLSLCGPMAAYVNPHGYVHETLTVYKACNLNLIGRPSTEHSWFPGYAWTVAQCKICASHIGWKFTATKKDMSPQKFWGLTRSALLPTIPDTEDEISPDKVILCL
Chain of GSPT1 (Q16531 whole entry partner): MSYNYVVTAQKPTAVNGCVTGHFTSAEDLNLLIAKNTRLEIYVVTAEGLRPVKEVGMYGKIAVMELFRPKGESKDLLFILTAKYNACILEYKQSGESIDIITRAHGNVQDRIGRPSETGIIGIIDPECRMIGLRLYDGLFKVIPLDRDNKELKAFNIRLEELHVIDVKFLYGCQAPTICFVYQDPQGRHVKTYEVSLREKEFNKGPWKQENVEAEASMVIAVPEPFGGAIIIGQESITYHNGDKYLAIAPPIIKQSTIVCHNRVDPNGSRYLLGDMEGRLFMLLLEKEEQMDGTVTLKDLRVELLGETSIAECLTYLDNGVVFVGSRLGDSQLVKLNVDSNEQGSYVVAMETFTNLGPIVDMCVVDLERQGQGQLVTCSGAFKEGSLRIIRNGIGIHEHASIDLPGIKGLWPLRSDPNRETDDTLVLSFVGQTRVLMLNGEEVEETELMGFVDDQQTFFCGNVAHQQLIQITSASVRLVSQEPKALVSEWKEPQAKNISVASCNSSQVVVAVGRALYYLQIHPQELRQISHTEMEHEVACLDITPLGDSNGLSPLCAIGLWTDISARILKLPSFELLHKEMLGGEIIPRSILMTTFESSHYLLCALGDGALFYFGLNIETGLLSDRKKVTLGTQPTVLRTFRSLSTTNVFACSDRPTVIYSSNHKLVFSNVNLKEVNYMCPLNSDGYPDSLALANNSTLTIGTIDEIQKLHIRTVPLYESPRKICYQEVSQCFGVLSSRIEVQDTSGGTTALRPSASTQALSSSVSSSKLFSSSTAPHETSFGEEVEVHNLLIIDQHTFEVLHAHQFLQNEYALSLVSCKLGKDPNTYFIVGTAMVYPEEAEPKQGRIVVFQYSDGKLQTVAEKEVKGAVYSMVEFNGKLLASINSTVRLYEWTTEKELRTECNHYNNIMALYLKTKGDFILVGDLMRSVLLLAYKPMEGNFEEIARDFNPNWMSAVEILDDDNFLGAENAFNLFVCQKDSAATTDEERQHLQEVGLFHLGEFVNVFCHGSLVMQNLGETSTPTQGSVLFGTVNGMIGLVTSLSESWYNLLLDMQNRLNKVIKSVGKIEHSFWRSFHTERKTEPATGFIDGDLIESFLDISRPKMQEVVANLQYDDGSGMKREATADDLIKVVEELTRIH
Summary of the method: (§1)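 hPBMC, 1×10^6 cells/mL, 24 h compound exposure; RIPA lysis, BCA protein assay, SDS-PAGE, NC membrane immunoblot. Densitometry vs internal control → % protein remaining; degradation % = 100% − remaining; DC50 = conc. at 50% of DMSO band signal.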

[3] = target: IKZF3 (Homo sapiens (Human), UniProt Q96SW2+Q9UKT9); experiment: Western blot, substrate protein expression in hPBMC: IKZF3; format: cell-based; conditions: hPBMC, compound 500 nM, 24 hours, Western blot
Chain of IKZF3 (Q9UKT9 whole entry): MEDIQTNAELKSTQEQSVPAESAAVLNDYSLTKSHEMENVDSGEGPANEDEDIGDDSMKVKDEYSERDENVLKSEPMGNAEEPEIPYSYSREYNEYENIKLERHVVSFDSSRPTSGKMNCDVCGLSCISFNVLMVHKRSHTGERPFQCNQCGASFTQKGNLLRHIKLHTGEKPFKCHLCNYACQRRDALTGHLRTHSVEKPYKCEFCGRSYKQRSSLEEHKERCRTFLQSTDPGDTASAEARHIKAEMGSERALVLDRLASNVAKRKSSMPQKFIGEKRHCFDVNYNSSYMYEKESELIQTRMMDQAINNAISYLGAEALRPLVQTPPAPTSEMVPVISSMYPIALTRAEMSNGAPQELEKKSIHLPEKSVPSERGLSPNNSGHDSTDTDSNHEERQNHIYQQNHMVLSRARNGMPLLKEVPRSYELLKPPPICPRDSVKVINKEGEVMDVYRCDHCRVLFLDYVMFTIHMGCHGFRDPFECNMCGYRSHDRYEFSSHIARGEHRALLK
Chain of IKZF3 (Q96SW2 whole entry): as the sequence (Q96SW2 whole entry) above
Chain of IKZF3 (Q16531 whole entry partner): as the sequence (Q16531 whole entry partner) above
Summary of the method: as §1

[4] = target: IKZF1 (Homo sapiens (Human), UniProt Q13422+Q96SW2); experiment: Western blot, substrate protein expression in hPBMC: IKZF1; format: cell-based; conditions: hPBMC, compound 500 nM, 24 hours, Western blot
Chain of IKZF1 (Q13422 whole entry): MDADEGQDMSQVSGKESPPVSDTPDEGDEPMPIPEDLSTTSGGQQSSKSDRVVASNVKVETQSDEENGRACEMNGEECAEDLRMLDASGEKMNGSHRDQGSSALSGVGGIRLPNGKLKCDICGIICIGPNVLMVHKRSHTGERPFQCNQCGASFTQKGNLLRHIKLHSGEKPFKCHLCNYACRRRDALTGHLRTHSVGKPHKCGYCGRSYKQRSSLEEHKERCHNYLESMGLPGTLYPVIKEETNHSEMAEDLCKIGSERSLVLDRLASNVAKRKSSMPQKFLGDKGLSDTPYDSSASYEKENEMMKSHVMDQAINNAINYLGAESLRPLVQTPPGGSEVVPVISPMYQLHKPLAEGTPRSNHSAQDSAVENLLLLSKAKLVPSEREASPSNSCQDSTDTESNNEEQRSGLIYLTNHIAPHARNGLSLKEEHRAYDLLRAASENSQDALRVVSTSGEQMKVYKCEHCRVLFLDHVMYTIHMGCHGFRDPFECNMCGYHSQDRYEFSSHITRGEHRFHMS
Chain of IKZF1 (Q96SW2 whole entry): as the sequence (Q96SW2 whole entry) above
Chain of IKZF1 (Q16531 whole entry partner): as the sequence (Q16531 whole entry partner) above
Summary of the method: as §1

Chain of human Cereblon WT GST-tagged protein (Q96SW2 whole entry): as the sequence (Q96SW2 whole entry) above

Compound: CC1CN(C(c2ccccc2)c2ccccc2)CC(C)N1C(=O)c1ccc2c(c1)C(=O)N(C1CCC(=O)NC1=O)C2=O (centres unmarked) [GT-05922, 5-(4-benzhydryl-2,6-dimethylpiperazine-1-carbonyl)-2-(2,6-dioxopiperidin-3-yl) isoindoline-1,3-dione]
- pIC50 [1]: 5.72 to 6.00
- substrate protein remaining % GSPT1 [2]: A (A represents 0% ≤ substrate protein remaining % ≤ 50%)
- substrate protein remaining % IKZF3 [3]: B (B represents substrate protein remaining % > 50%)
- substrate protein remaining % IKZF1 [4]: B (B represents substrate protein remaining % > 50%)

Compound: O=C1CCC(N2Cc3cc(C(=O)N4CCC(N(c5ccccc5)c5ccccn5)CC4)ccc3C2=O)C(=O)N1 (centres unmarked) [GT-05923, 3-(1-oxo-5-(4-(phenyl(pyridin-2-yl)amino)piperidine-1-carbonyl)isoindolin-2-yl)piperidine-2,6-dione]
- pIC50 [1]: > 6.30
- substrate protein remaining % GSPT1 [2]: A (A represents 0% ≤ substrate protein remaining % ≤ 50%)
- substrate protein remaining % IKZF3 [3]: B (B represents substrate protein remaining % > 50%)
- substrate protein remaining % IKZF1 [4]: B (B represents substrate protein remaining % > 50%)

Compound: O=C1CCC(N2Cc3cc(C(=O)N4CCC(N(c5ccccc5)c5ccccn5)CC4)cc(F)c3C2=O)C(=O)N1 (centres unmarked) [GT-05924, 3-(7-fluoro-1-oxo-5-(4-(phenyl(pyridin-2-yl)amino)piperidine-1-carbonyl)isoindolin-2-yl)piperidine-2,6-dione]
- pIC50 [1]: 6.00 to 6.30
- substrate protein remaining % GSPT1 [2]: A (A represents 0% ≤ substrate protein remaining % ≤ 50%)
- substrate protein remaining % IKZF3 [3]: B (B represents substrate protein remaining % > 50%)
- substrate protein remaining % IKZF1 [4]: B (B represents substrate protein remaining % > 50%)

Compound: O=C1CCC(N2Cc3cc(C(=O)N4CCC(N(c5ccccc5)c5ccccc5)CC4)ccc3C2=O)C(=O)N1 (centres unmarked) [GT-05926, 3-(5-(4-(diphenylamino)piperidine-1-carbonyl)-1-oxoisoindolin-2-yl)piperidine-2,6-dione]
- pIC50 [1]: > 6.30
- substrate protein remaining % GSPT1 [2]: A (A represents 0% ≤ substrate protein remaining % ≤ 50%)
- substrate protein remaining % IKZF3 [3]: B (B represents substrate protein remaining % > 50%)
- substrate protein remaining % IKZF1 [4]: B (B represents substrate protein remaining % > 50%)

Compound: O=C1CCC(N2Cc3cc(C(=O)N4CCC(N(c5ccccc5)c5ccccc5)CC4)cc(F)c3C2=O)C(=O)N1 (centres unmarked) [GT-05927, 3-(5-(4-(diphenylamino)piperidine-1-carbonyl)-7-fluoro-1-oxoisoindolin-2-yl)piperidine-2,6-dione]
- pIC50 [1]: > 6.30
- substrate protein remaining % GSPT1 [2]: A (A represents 0% ≤ substrate protein remaining % ≤ 50%)
- substrate protein remaining % IKZF3 [3]: B (B represents substrate protein remaining % > 50%)
- substrate protein remaining % IKZF1 [4]: B (B represents substrate protein remaining % > 50%)

Compound: O=C1CCC(N2Cc3c(C(=O)N4CCN(C(c5ccccc5)c5ccccn5)CC4)cccc3C2=O)C(=O)N1 (centres unmarked) [GT-05929, 3-(1-oxo-4-(4-(phenyl(pyridin-2-yl)methyl)piperazine-1-carbonyl)isoindolin-2-yl)piperidine-2,6-dione]
- pIC50 [1]: 6.00 to 6.30
- substrate protein remaining % GSPT1 [2]: A (A represents 0% ≤ substrate protein remaining % ≤ 50%)
- substrate protein remaining % IKZF3 [3]: A (A represents 0% ≤ substrate protein remaining % ≤ 50%)
- substrate protein remaining % IKZF1 [4]: A (A represents 0% ≤ substrate protein remaining % ≤ 50%)

Compound: O=C1CCC(N2Cc3c(C(=O)N4CCN(C(c5ccc(F)cc5)c5ccc(F)cc5)CC4)cccc3C2=O)C(=O)N1 (centres unmarked) [GT-05930, 3-(4-(4-(bis(4-fluorophenyl)methyl)piperazine-1-carbonyl)-1-oxoisoindolin-2-yl)piperidine-2,6-dione]
- pIC50 [1]: > 6.30
- substrate protein remaining % GSPT1 [2]: A (A represents 0% ≤ substrate protein remaining % ≤ 50%)
- substrate protein remaining % IKZF3 [3]: B (B represents substrate protein remaining % > 50%)
- substrate protein remaining % IKZF1 [4]: B (B represents substrate protein remaining % > 50%)

Compound: CC1(C)CN(Cc2cc3c(cc2F)C(=O)N(C2CCC(=O)NC2=O)C3)CCN1C(c1ccccc1)c1ccccc1 (centres unmarked) [GT-05960, 3-(5-((4-benzhydryl-3,3-dimethylpiperazin-1-yl)methyl)-6-fluoro-1-oxoisoindolin-2-yl)piperidine-2,6-dione]
- pIC50 [1]: 5.72 to 6.00
- substrate protein remaining % GSPT1 [2]: A (A represents 0% ≤ substrate protein remaining % ≤ 50%)
- substrate protein remaining % IKZF3 [3]: A (A represents 0% ≤ substrate protein remaining % ≤ 50%)
- substrate protein remaining % IKZF1 [4]: B (B represents substrate protein remaining % > 50%)

Compound: CC1(C)CN(Cc2cc(F)c3c(c2)CN(C2CCC(=O)NC2=O)C3=O)CCN1C(c1ccccc1)c1ccccc1 (centres unmarked) [GT-05961, 3-(5-((4-benzhydryl-3,3-dimethylpiperazin-1-yl)methyl)-7-fluoro-1-oxoisoindolin-2-yl)piperidine-2,6-dione]
- pIC50 [1]: 6.00 to 6.30
- substrate protein remaining % GSPT1 [2]: A (A represents 0% ≤ substrate protein remaining % ≤ 50%)
- substrate protein remaining % IKZF3 [3]: A (A represents 0% ≤ substrate protein remaining % ≤ 50%)
- substrate protein remaining % IKZF1 [4]: B (B represents substrate protein remaining % > 50%)

Compound: O=C1CCC(N2Cc3cc(CN4CC5CCC4CN5C(c4ccccc4)c4ccccc4)c(F)cc3C2=O)C(=O)N1 (centres unmarked) [GT-05963, 3-(5-((5-benzhydryl-2,5-diazabicyclo[2.2.2]octan-2-yl)methyl)-6-fluoro-1-oxoisoindolin-2-yl)piperidine-2,6-dione]
- pIC50 [1]: 6.00 to 6.30
- substrate protein remaining % GSPT1 [2]: A (A represents 0% ≤ substrate protein remaining % ≤ 50%)
- substrate protein remaining % IKZF3 [3]: B (B represents substrate protein remaining % > 50%)
- substrate protein remaining % IKZF1 [4]: B (B represents substrate protein remaining % > 50%)

Compound: CC1CN(Cc2ccc3c(c2F)CN(C2CCC(=O)NC2=O)C3=O)CC(C)N1C(c1ccccc1)c1ccccc1 (centres unmarked) [GT-05965, 3-(5-((4-benzhydryl-3,5-dimethylpiperazin-1-yl)methyl)-4-fluoro-1-oxoisoindolin-2-yl)piperidine-2,6-dione]
- pIC50 [1]: 5.72 to 6.00
- substrate protein remaining % GSPT1 [2]: A (A represents 0% ≤ substrate protein remaining % ≤ 50%)
- substrate protein remaining % IKZF3 [3]: A (A represents 0% ≤ substrate protein remaining % ≤ 50%)
- substrate protein remaining % IKZF1 [4]: A (A represents 0% ≤ substrate protein remaining % ≤ 50%)

Compound: CC1CN(Cc2cc3c(cc2F)C(=O)N(C2CCC(=O)NC2=O)C3)CC(C)N1C(c1ccccc1)c1ccccc1 (centres unmarked) [GT-05966, 3-(5-((4-benzhydryl-3,5-dimethylpiperazin-1-yl)methyl)-6-fluoro-1-oxoisoindolin-2-yl)piperidine-2,6-dione]
- pIC50 [1]: 5.72 to 6.00
- substrate protein remaining % GSPT1 [2]: A (A represents 0% ≤ substrate protein remaining % ≤ 50%)
- substrate protein remaining % IKZF3 [3]: B (B represents substrate protein remaining % > 50%)
- substrate protein remaining % IKZF1 [4]: B (B represents substrate protein remaining % > 50%)

Compound: CC1CN(Cc2cc(F)c3c(c2)CN(C2CCC(=O)NC2=O)C3=O)CC(C)N1C(c1ccccc1)c1ccccc1 (centres unmarked) [GT-05967, 3-(5-((4-benzhydryl-3,5-dimethylpiperazin-1-yl)methyl)-7-fluoro-1-oxoisoindolin-2-yl)piperidine-2,6-dione]
- pIC50 [1]: 5.72 to 6.00
- substrate protein remaining % GSPT1 [2]: A (A represents 0% ≤ substrate protein remaining % ≤ 50%)
- substrate protein remaining % IKZF3 [3]: A (A represents 0% ≤ substrate protein remaining % ≤ 50%)
- substrate protein remaining % IKZF1 [4]: B (B represents substrate protein remaining % > 50%)

Compound: O=C1CCC(N2Cc3c(ccc(CN4CCC5(CCN(C(c6ccccc6)c6ccccc6)CC5)C4)c3F)C2=O)C(=O)N1 (centres unmarked) [GT-05970, 3-(5-((8-benzhydryl-2,8-diazaspiro[4.5]decan-2-yl)methyl)-4-fluoro-1-oxoisoindolin-2-yl)piperidine-2,6-dione]
- pIC50 [1]: 5.72 to 6.00
- substrate protein remaining % GSPT1 [2]: A (A represents 0% ≤ substrate protein remaining % ≤ 50%)
- substrate protein remaining % IKZF3 [3]: B (B represents substrate protein remaining % > 50%)
- substrate protein remaining % IKZF1 [4]: B (B represents substrate protein remaining % > 50%)

Compound: O=C1CCC(N2Cc3cc(CN4CCC5(CCN(C(c6ccccc6)c6ccccc6)CC5)C4)c(F)cc3C2=O)C(=O)N1 (centres unmarked) [GT-05971, 3-(5-((8-benzhydryl-2,8-diazaspiro[4.5]decan-2-yl)methyl)-6-fluoro-1-oxoisoindolin-2-yl)piperidine-2,6-dione]
- pIC50 [1]: 5.72 to 6.00
- substrate protein remaining % GSPT1 [2]: A (A represents 0% ≤ substrate protein remaining % ≤ 50%)
- substrate protein remaining % IKZF3 [3]: B (B represents substrate protein remaining % > 50%)
- substrate protein remaining % IKZF1 [4]: B (B represents substrate protein remaining % > 50%)

Compound: O=C1CCC(N2Cc3c(CN4CCC5(CCN(C(c6ccccc6)c6ccccc6)CC5)C4)cccc3C2=O)C(=O)N1 (centres unmarked) [GT-05973, 3-(4-((8-benzhydryl-2,8-diazaspiro[4.5]decan-2-yl)methyl)-1-oxoisoindolin-2-yl)piperidine-2,6-dione]
- pIC50 [1]: 5.72 to 6.00
- substrate protein remaining % GSPT1 [2]: A (A represents 0% ≤ substrate protein remaining % ≤ 50%)
- substrate protein remaining % IKZF3 [3]: A (A represents 0% ≤ substrate protein remaining % ≤ 50%)
- substrate protein remaining % IKZF1 [4]: B (B represents substrate protein remaining % > 50%)

Compound: O=C1CCC(N2C(=O)c3ccc(N4CC5CCC4CN5C(c4ccccc4)c4ccccc4)cc3C2=O)C(=O)N1 (centres unmarked) [GT-05976, 5-(5-benzhydryl-2,5-diazabicyclo[2.2.2]octan-2-yl)-2-(2,6-dioxopiperidin-3-yl) isoindoline-1,3-dione]
- pIC50 [1]: > 6.30
- substrate protein remaining % GSPT1 [2]: A (A represents 0% ≤ substrate protein remaining % ≤ 50%)
- substrate protein remaining % IKZF3 [3]: B (B represents substrate protein remaining % > 50%)
- substrate protein remaining % IKZF1 [4]: B (B represents substrate protein remaining % > 50%)
